# US11453638B2, “Process method for producing pesticide by using carbon dioxide” (Nankai University, priority 2018, dated 2022)
# Legend:
# Assay type in all cases: in vivo
# Culex pipiens pallens = assay: Activity of killing Culex pipiens pallens larvae; settings: for Mortality: 10 ppm, 4th instar mosquito larvae in water, 24 h
# Description: 2) Activity of killing Culexpipiens pallens larval: Culicides pallens, a normal indoor population. Weigh about 5 mg of the test compound into a penicillin vial, add 5 mL of acetone (or a suitable solvent), and shake to dissolve, i.e. 1000 μg·ml^−1 mother liquor. 0.5 mL mother liquor was removed and added into a 100 mL beaker containing […] of water. Ten 4th instar mosquito larvae were selected and poured into the beaker together with 10 mL of feeding liquid. The concentration of the liquid medicine was 10 μg·ml^−1. Place the treatment in the standard treatment room, and check the results 24 h. The blank control was an aqueous solution containing 0.5 mL of test solvent.
# [1] = system: Ostrinia nubilalis Hubner; assay: Activity of killing Ostrinia nubilalis Hubner (leaf soaking method); settings: for Mortality: 600 ppm (table), 3rd instar larvae, corn leaf dipping, 72 hours
# Text: 4) Activity of killing Ostrinia nubilalis Hubner: Ostrinia nubilalis Hubner, a normal population raised indoors. Test method: leaf soaking method. In the leaf dipping method, corn leaves are dipped in a liquid medicine prepared by acetone ([…]), 10 3rd instar larvae are inoculated into a culture dish after the liquid medicine is dried, and 30 test larvae are shared for three times, mainly gastric toxicity and contact killing effects, and the feeding phenomenon of the larvae is observed. Mortality was examined 72 hours later.
# Mythimna separata Walker = assay: Activity of killing Mythimna separata Walker (leaf dipping method); settings: for Mortality: 4th instar larvae, corn leaf dipping, 24 hours
# Description: 1) Activity of killing Mythimna separata Walker: Mythimna separata Walker, a normal population raised indoors. In the leaf dipping method, corn leaves are dipped in a liquid medicine ([…]) prepared by acetone, and the 4th instar larvae are inoculated after the liquid medicine, mainly for stomach toxicity and contact killing, and the feeding phenomenon of the larvae is observed. Mortality was examined 24 hours.
# Helicoverpa armigera = assay: Activity of killing Helicoverpa armigera (leaf soaking method); settings: for Mortality: 600 ppm, third-instar larvae, corn leaf soaking, 72 hours
# Description: 3) Activity of killing Helicoverpa armigera:Helicoverpa armigera, a normal population raised indoors. Test method: leaf soaking method. In the leaf soaking method, corn leaves are soaked in a liquid medicine prepared by acetone (600 ppm, 600 mg/L), ground and put into 24 holes after the liquid medicine is dried, one third-instar larva is inserted into each hole, 10 are used for each time, and three times are repeated, a total of 30 test insects are tested, mainly gastric toxicity and contact killing effects, and the feeding phenomenon of the larva is observed. Mortality was examined 72 hours later.
SMILES,Mortality (Culex pipiens pallens) [%],Mortality [1] [%],lethal rate to Ostrinia nubilalis Hubner ([1]; concentration of 600 ppm) [%],Mortality (Mythimna separata Walker; 200 ppm) [%],lethal rate to armyworm (Mythimna separata Walker; concentration of 200 ppm) [%],Mortality (Helicoverpa armigera) [%],lethal rate to cotton bollworm (Helicoverpa armigera; concentration of 600 ppm) [%],Mortality (Mythimna separata Walker; 600 ppm) [%],lethal rate to Culex pipiens larvae (Culex pipiens pallens; concentration of 10 ppm) [%]
CCC1CC(=O)C(C(=O)Nc2ccccc2)=C(Nc2ccccc2)C1 (centres unmarked) [compound 3d],20,100,100,100,100,100,100,,
CC1CC(=O)C(C(=O)Nc2ccccc2)=C(Nc2ccccc2)C1 (centres unmarked) [compound 3b],70,20,,,,15,,35,
CCCC1CC(=O)C(C(=O)Nc2ccccc2)=C(Nc2ccccc2)C1 (centres unmarked) [compound 3e],100,30,,,,25,,55,100
CC1(C)CC(=O)C(C(=O)Nc2ccccc2)=C(Nc2ccccc2)C1 [compound 3c],80,15,,,,10,,30,
